This passage reports MIC results from ChEMBL document CHEMBL1156621, “Synthesis and cellular effects of cycloterpenals: cyclohexadienal-based activators of neurite outgrowth” (2008).

In brackets after ≈: the same amount, converted by molar mass. Where only a bound is given, the exact number is not on record here.

Format in all cases: functional
The subject of one assay is Saccharomyces cerevisiae. Nature of the assay: Antifungal activity against Saccharomyces cerevisiae after 16 hrs.
The next assay relates to Escherichia coli. Nature of the assay: Antibacterial activity against Escherichia coli after 16 hrs.
A further assay relates to Bacillus subtilis. Nature of the assay: Antibacterial activity against Bacillus subtilis after 16 hrs.

One may read the MIC as the smallest concentration in the dilution series that meets the test's criterion for growth inhibition. Read a low MIC as greater potency. Regarding `CC1=C(/C=C/C(C)=C/C=C/C2=CC=C(C=O)C(c3ccc(N(C)C)cc3)C2)C(C)(C)CCC1` (stereo unspecified), the minimal inhibitory concentration (MIC) against Saccharomyces cerevisiae, with Escherichia coli and against Bacillus subtilis was over 100 µg/mL throughout.

Turning to `CC1=CC=C(C=O)C(c2ccc(N(C)C)cc2)C1` (stereo unspecified), the MIC in the assay on Saccharomyces cerevisiae, with Escherichia coli and in the assay on Bacillus subtilis was over 100 µg/mL each time.

For the compound `O=CC1=CC=C(c2ccc(Cl)s2)CC1c1ccccc1` (stereo unspecified), the MIC with Saccharomyces cerevisiae, with Escherichia coli and in the assay with Bacillus subtilis was over 100 µg/mL each time.

For the compound `CN(C)c1ccc(-c2cc(-c3ccc4c(c3)Cc3ccccc3-4)ccc2C=O)cc1`, the minimum inhibitory concentration (MIC) in the assay on Saccharomyces cerevisiae, against Escherichia coli and in the assay on Bacillus subtilis was over 100 µg/mL each time.

Consider `CC(C)=CCCC1=CC=C(C=O)C(c2ccccc2)C1` (stereo unspecified), for which the MIC in the assay with Saccharomyces cerevisiae, with Escherichia coli and with Bacillus subtilis was over 100 µg/mL in each case.

Turning to `CC1=C(/C=C/C(C)=C/C=C/c2ccc(C=O)c(-c3ccccc3)c2)C(C)(C)CCC1`, the MIC against Saccharomyces cerevisiae, in the assay on Escherichia coli and against Bacillus subtilis was over 100 µg/mL each time.

For the compound `CC(C)=CCCC1=CC=C(C=O)C(c2ccc(N(C)C)cc2)C1` (stereo unspecified), the MIC in the assay on Saccharomyces cerevisiae, against Escherichia coli and against Bacillus subtilis was over 100 µg/mL throughout.

As to `O=CC1=CC=C(c2cccs2)CC1c1ccccc1` (stereo unspecified), the MIC in the assay with Saccharomyces cerevisiae, against Escherichia coli and against Bacillus subtilis was over 100 µg/mL each time.

Turning to `CC(C)=CCCC1=CC=C(C=O)C(C)C1` (stereo unspecified), the MIC against Saccharomyces cerevisiae, against Escherichia coli and in the assay with Bacillus subtilis was over 100 µg/mL each time.

With `CC1CC(c2ccc(-c3ccccc3)cc2)=CC=C1C=O` (stereo unspecified), the MIC in the assay with Saccharomyces cerevisiae, in the assay with Escherichia coli and with Bacillus subtilis was over 100 µg/mL throughout.

For the compound `CC1=C(/C=C/C(C)=C/C=C/C2=CC=C(C=O)CC2)C(C)(C)CCC1`, the MIC in the assay on Saccharomyces cerevisiae, with Escherichia coli and in the assay with Bacillus subtilis was over 100 µg/mL in each case.

Consider `CN(C)c1ccc(-c2cc(-c3ccc(-c4ccccc4)cc3)ccc2C=O)cc1`, for which the minimal inhibitory concentration (MIC) in the assay with Saccharomyces cerevisiae, in the assay on Escherichia coli and in the assay on Bacillus subtilis was over 100 µg/mL each time.

With `CC1CC(c2ccc3c(c2)Cc2ccccc2-3)=CC=C1C=O` (stereo unspecified), the MIC in the assay on Saccharomyces cerevisiae, with Escherichia coli and in the assay on Bacillus subtilis was over 100 µg/mL each time.

For `CN(C)c1ccc(C2CC(c3cccs3)=CC=C2C=O)cc1` (stereo unspecified), the MIC against Saccharomyces cerevisiae, with Escherichia coli and against Bacillus subtilis was over 100 µg/mL throughout.

With `CC(C)=CCC/C(C)=C/CCC1=CC=C(C=O)C(C)(CC/C=C(\C)CCC=C(C)C)C1` (stereo unspecified), the MIC in the assay on Saccharomyces cerevisiae, against Escherichia coli and against Bacillus subtilis was over 100 µg/mL throughout.

In the case of `CC1CC(c2cccs2)=CC=C1C=O` (stereo unspecified), the MIC with Saccharomyces cerevisiae, in the assay on Escherichia coli and against Bacillus subtilis was over 100 µg/mL throughout.

Regarding `CC1=C(/C=C/C2=CC=C(C=O)C(C)C2)C(C)(C)CCC1` (stereo unspecified), the MIC with Saccharomyces cerevisiae, against Escherichia coli and against Bacillus subtilis was over 100 µg/mL each time.

As to `CC(C)=CCCc1ccc(C=O)c(-c2ccc(N(C)C)cc2)c1`, the MIC with Saccharomyces cerevisiae, in the assay with Escherichia coli and in the assay with Bacillus subtilis was over 100 µg/mL each time.

For the compound `CC(C)=CCC/C(C)=C/C[C@H]1C(C)=CC=C(C=O)[C@H]1c1ccc([N+](=O)[O-])cc1`, the MIC against Saccharomyces cerevisiae, in the assay on Escherichia coli and with Bacillus subtilis was over 100 µg/mL in each case.

As to `CN(C)c1ccc(-c2cc(-c3ccccc3)ccc2C=O)cc1`, the MIC in the assay on Saccharomyces cerevisiae, in the assay with Escherichia coli and against Bacillus subtilis was over 100 µg/mL each time.

Regarding `CC(C)=CCC/C(C)=C/CCC1=CC=C(C=O)C(c2ccccc2)C1` (stereo unspecified), the minimal inhibitory concentration (MIC) in the assay with Saccharomyces cerevisiae, in the assay on Escherichia coli and against Bacillus subtilis was over 100 µg/mL throughout.

On to `CC(C)=CCC/C(C)=C/C[C@H]1C(C)=CC=C(C=O)[C@H]1c1ccc(N(C)C)cc1`, for which the MIC against Saccharomyces cerevisiae, in the assay with Escherichia coli and in the assay with Bacillus subtilis was over 100 µg/mL each time.

Regarding `CCCCCCC1=CC=C(C=O)C(C)(CCCCCC)C1` (stereo unspecified), the MIC with Saccharomyces cerevisiae, with Escherichia coli and in the assay with Bacillus subtilis was over 100 µg/mL each time.

Regarding `CC1=C(/C=C/C2=CC=C(C=O)C(C)(/C=C/C3=C(C)CCCC3(C)C)C2)C(C)(C)CCC1` (stereo unspecified), the minimal inhibitory concentration (MIC) with Saccharomyces cerevisiae, against Escherichia coli and against Bacillus subtilis was over 100 µg/mL in each case.

Take `CC(C)=CC[C@H]1C(C)=CC=C(C=O)[C@H]1c1ccc(N(C)C)cc1`: the MIC in the assay with Saccharomyces cerevisiae, in the assay with Escherichia coli and against Bacillus subtilis was over 100 µg/mL each time.

On to `O=CC1=CC=C(c2ccc(-c3ccccc3)cc2)CC1c1ccccc1` (stereo unspecified), for which the minimal inhibitory concentration (MIC) in the assay on Saccharomyces cerevisiae, with Escherichia coli and against Bacillus subtilis was over 100 µg/mL each time.

Regarding `Cc1ccc(-c2ccc(C=O)c(-c3ccc([N+](=O)[O-])cc3)c2)o1`, the MIC with Saccharomyces cerevisiae, against Escherichia coli and against Bacillus subtilis was over 100 µg/mL throughout.

Take `CN(C)c1ccc(-c2cc(-c3ccc4ccccc4c3)ccc2C=O)cc1`: the MIC in the assay with Saccharomyces cerevisiae, against Escherichia coli and against Bacillus subtilis was over 100 µg/mL each time.

Regarding `CC1(c2cccs2)CC(c2ccc(-c3ccccc3)cc2)=CC=C1C=O` (stereo unspecified), the minimum inhibitory concentration (MIC) against Saccharomyces cerevisiae is over 100 µg/mL; against Escherichia coli it was over 100 µg/mL; in the assay on Bacillus subtilis, 10 µg/mL (≈ 28.1 µM).

With `CC(C)=CCC1CC(C=O)=CC=C1C` (stereo unspecified), the MIC with Saccharomyces cerevisiae, with Escherichia coli and against Bacillus subtilis was over 100 µg/mL each time.

As to `O=CC1=CC=C(c2cccs2)CC1c1ccc([N+](=O)[O-])cc1` (stereo unspecified), the MIC against Saccharomyces cerevisiae, against Escherichia coli and with Bacillus subtilis was over 100 µg/mL each time.

Consider `CC(C)=CCCC1=CC=C(C=O)C(C)(c2ccc(C)o2)C1` (stereo unspecified), for which the MIC against Saccharomyces cerevisiae, in the assay with Escherichia coli and against Bacillus subtilis was over 100 µg/mL each time.

As for `CC1(c2ccc3ccccc3c2)CC(c2ccc3ccccc3c2)=CC=C1C=O` (stereo unspecified), the MIC against Saccharomyces cerevisiae, with Escherichia coli and against Bacillus subtilis was over 100 µg/mL in each case.

In the case of `CC1=C(/C=C/C(C)=C/C=C/C2=CC=C(C=O)C(C)(/C=C/C=C(C)/C=C/C3=C(C)CCCC3(C)C)C2)C(C)(C)CCC1` (stereo unspecified), the minimum inhibitory concentration (MIC) in the assay with Saccharomyces cerevisiae, against Escherichia coli and against Bacillus subtilis was over 100 µg/mL throughout.

In the case of `O=CC1=CC=C(c2ccccc2)CC1c1ccccc1` (stereo unspecified), the MIC against Saccharomyces cerevisiae, in the assay with Escherichia coli and against Bacillus subtilis was over 100 µg/mL in each case.

`Cc1ccc(C2=CC=C(C=O)C(c3ccccc3)C2)o1` (stereo unspecified): the MIC against Saccharomyces cerevisiae, against Escherichia coli and in the assay on Bacillus subtilis was over 100 µg/mL throughout.

With `Cc1ccc(C=O)c(-c2ccc([N+](=O)[O-])cc2)c1`, the MIC against Saccharomyces cerevisiae, in the assay on Escherichia coli and in the assay with Bacillus subtilis was over 100 µg/mL each time.

Consider `CC1=C(/C=C/C(C)=C/C=C/C2=CC=C(C=O)C(c3ccccc3)C2)C(C)(C)CCC1` (stereo unspecified), for which the minimal inhibitory concentration (MIC) against Saccharomyces cerevisiae, with Escherichia coli and against Bacillus subtilis was over 100 µg/mL in each case.

`CC1=CC=C(C=O)C(c2ccc([N+](=O)[O-])cc2)C1` (stereo unspecified): the MIC against Saccharomyces cerevisiae, in the assay on Escherichia coli and against Bacillus subtilis was over 100 µg/mL in each case.

As to `CCCCC[C@H]1C(C)=CC=C(C=O)[C@H]1c1ccc(N(C)C)cc1`, the MIC in the assay on Saccharomyces cerevisiae, against Escherichia coli and against Bacillus subtilis was over 100 µg/mL throughout.

`CN(C)c1ccc(C2CC(c3ccc4c(c3)Cc3ccccc3-4)=CC=C2C=O)cc1` (stereo unspecified): the MIC with Saccharomyces cerevisiae, in the assay on Escherichia coli and in the assay on Bacillus subtilis was over 100 µg/mL in each case.

On to `Cc1ccc(C=O)c(-c2ccc(N(C)C)cc2)c1`, for which the minimum inhibitory concentration (MIC) in the assay with Saccharomyces cerevisiae is over 100 µg/mL; against Escherichia coli it was over 100 µg/mL; in the assay with Bacillus subtilis it was 10 µg/mL (≈ 41.8 µM).

For `Cc1ccc(C2=CC=C(C=O)C(C)(c3ccc(C)o3)C2)o1` (stereo unspecified), the MIC against Saccharomyces cerevisiae, with Escherichia coli and with Bacillus subtilis was over 100 µg/mL throughout.

As for `CCC1(c2cccs2)C(C=O)=CC=C(c2cccs2)C1C` (stereo unspecified), the MIC in the assay with Saccharomyces cerevisiae, against Escherichia coli and with Bacillus subtilis was over 100 µg/mL throughout.

Take `CC(C)=CC[C@H]1C(C)=CC=C(C=O)[C@H]1c1ccccc1`: the MIC in the assay with Saccharomyces cerevisiae, in the assay with Escherichia coli and against Bacillus subtilis was over 100 µg/mL each time.

For the compound `CC(C)=CCCc1ccc(C=O)c(-c2ccc([N+](=O)[O-])cc2)c1`, the minimum inhibitory concentration (MIC) against Saccharomyces cerevisiae, with Escherichia coli and in the assay with Bacillus subtilis was over 100 µg/mL each time.

On to `CC1CC(c2ccc3ccccc3c2)=CC=C1C=O` (stereo unspecified), for which the MIC in the assay on Saccharomyces cerevisiae, against Escherichia coli and against Bacillus subtilis was over 100 µg/mL throughout.

Consider `Cc1ccc(C=O)c(-c2ccccc2)c1`, for which the MIC in the assay on Saccharomyces cerevisiae, in the assay with Escherichia coli and in the assay with Bacillus subtilis was over 100 µg/mL in each case.

With `CC1=C(/C=C/C2=CC=C(C=O)C(c3ccc([N+](=O)[O-])cc3)C2)C(C)(C)CCC1` (stereo unspecified), the MIC in the assay on Saccharomyces cerevisiae, against Escherichia coli and against Bacillus subtilis was over 100 µg/mL each time.

For `Cc1ccc(C2=CC=C(C=O)C(c3ccc(N(C)C)cc3)C2)o1` (stereo unspecified), the MIC in the assay with Saccharomyces cerevisiae, against Escherichia coli and in the assay on Bacillus subtilis was over 100 µg/mL in each case.

With `O=CC1=CC=C(c2ccccc2)CC1c1ccc([N+](=O)[O-])cc1` (stereo unspecified), the MIC in the assay with Saccharomyces cerevisiae, with Escherichia coli and against Bacillus subtilis was over 100 µg/mL in each case.

As for `CC1=C(/C=C/C2=CC=C(C=O)C(c3ccc(N(C)C)cc3)C2)C(C)(C)CCC1` (stereo unspecified), the MIC against Saccharomyces cerevisiae, against Escherichia coli and against Bacillus subtilis was over 100 µg/mL throughout.

For the compound `CC1=CC=C(C=O)C(c2ccccc2)C1` (stereo unspecified), the MIC in the assay on Saccharomyces cerevisiae, with Escherichia coli and in the assay with Bacillus subtilis was over 100 µg/mL in each case.

Regarding `CC1C(c2cccs2)=CC=C(C=O)C1c1ccccc1` (stereo unspecified), the MIC with Saccharomyces cerevisiae, in the assay on Escherichia coli and with Bacillus subtilis was over 100 µg/mL throughout.

As to `CN(C)c1ccc(C2CC(c3ccc(-c4ccccc4)cc3)=CC=C2C=O)cc1` (stereo unspecified), the MIC in the assay on Saccharomyces cerevisiae, against Escherichia coli and in the assay with Bacillus subtilis was over 100 µg/mL throughout.

Regarding `CC(C)=CC[C@@H]1C(C)=CC=C(C=O)[C@H]1c1ccccc1`, the MIC in the assay with Saccharomyces cerevisiae, against Escherichia coli and in the assay on Bacillus subtilis was over 100 µg/mL each time.

Regarding `O=CC1=CC=C(c2ccc3c(c2)Cc2ccccc2-3)CC1c1ccccc1` (stereo unspecified), the MIC against Saccharomyces cerevisiae, in the assay with Escherichia coli and against Bacillus subtilis was over 100 µg/mL each time.
